Laboratory results published in patent publication US8653023B1, “Dual beneficial effect of dopamine enhancing and neuroprotective actions of PKC delta inhibitors for treatment of Parkinson's disease” (Iowa State University Research Foundation, Inc., priority 2006, dated 2014).

Assays:
[1] = test system: bone marrow-derived macrophages; conditions: cited from earlier work
NZM mice = conditions: in vivo treatment; cited from earlier work
[2] = test system: tyrosine hydroxylase (TH); assay: TH phosphorylation in PC12 cells (immunoblot, immunofluorescence); type: cell-based; conditions: 3 μM rottlerin for 3 hr
Description: PC12 cells, differentiated N27 dopaminergic cells and primary mesencephalic neurons were exposed to 1-10 μM rottlerin for the duration of the experiment. DMSO (0.01%) was used as vehicle control. PKCδ-DN- and Lac Z-expressing N27 cells were only treated with 0.01% DMSO. […] Untreated or vehicle treated cells were used as control samples.
Cell and brain lysates containing equal amounts of protein were loaded in each lane and separated on a 10-12% SDS-PAGE gel as described previously (Kaul et al., 2003). After the separation, proteins were transferred to nitrocellulose membrane, and nonspecific binding sites were blocked by treating with 5% nonfat dry milk powder. The membranes were then treated with primary antibodies directed against PKCδ (rabbit polyclonal or mouse monoclonal, 1:2000 dilution), TH (rabbit polyclonal or mouse monoclonal, 1:1000), phospho TH-ser40 (rabbit polyclonal, 1:1000), phospho TH-ser31 TH (rabbit polyclonal, 1:1000), or PP2A (mouse monoclonal, 1:1000). The primary antibody treatments were followed by treatment with secondary HRP-conjugated anti-rabbit or anti-mouse IgG (1:2000) for 1 hr at RT. Secondary antibody-bound proteins were detected using Amersham's ECL chemiluminescence kit. To confirm equal protein loading, blots were reprobed with a β-actin antibody (1:5000 dilution). Western blot images were captured with a Kodak 2000 MM imaging system and data were analyzed using 1D Kodak imaging analysis software.
Immunostaining of PKCδ, TH, Ser40 P-TH and Ser31 P-TH was performed in PC12, N27 and primary mesencephalic neurons. Cells were grown on poly-L-Lysine-coated glass cover slips. After treatment, the cells were fixed with 4% paraformaldehyde and processed for immunohistochemical staining. First, non-specific sites were blocked with 5% normal goat serum containing 0.4% BSA and 0.2% Triton-X 100 in PBS for 20 min. Cells were then incubated with antibodies directed against PKCδ (1:500 dilution), TH (1:500 dilution), and P-THSer40 (1:500 dilution) overnight at 4° C. followed by incubation with either Alexa 488-conjugated (green, 1:1000) or Cy3-conjugated (red, 1:1000) secondary antibody for 1 hr at RT. Secondary antibody treatments were followed by incubation with Hoechst 33342 (10 μg/ml) for 3 min at room temperature to stain the nucleus. Then the coverslips containing stained cells were washed with PBS, mounted on a slide, and viewed under a Nikon inverted fluorescence microscope (Model TE-2000U); images were captured with a SPOT digital camera (Diagnostic Instruments, Sterling Heights, Mich.).

[3] = test system: MPTP-treated C57 black mice; assay: Locomotor activity of MPTP-treated mice (VersaMax); type: in vivo; conditions: rottlerin 20 mg/kg + MPTP 30 mg/kg 5 days
Description: Behavioral data were collected using VersaMax Animal Activity Monitors (AccuScan Model RXYZCM-16, Columbus, Ohio). Each chamber was 40×40×30.5 cm^3, made of clear Plexiglas and covered with a Plexiglas lid with air-holes. Infrared monitoring sensors were located every 2.54 cm along the perimeter (16 infrared beams along each side) and 2.5 cm above the floor. Two additional sets of 16 sensors were located 8.0 cm above the floor on opposite sides. Data were collected and analyzed by a VersaMax Analyzer (AccuScan Model CDA-8, Columbus, Ohio) which in turn sent information to an IBM computer where it was stored for future analyses. Locomotor activity was presented as horizontal movement and vertical movement. All data are expressed as percent of the vehicle-treated control group (mean 6 SEM) and were obtained 1 day after MPTP or vehicle treatment in a 20-min test session.

3T3 cells = conditions: zinc deficient medium; cited from earlier work
PKA = conditions: cited from earlier work
[4] = test system: MPTP-treated C57 black mice; assay: TH protein level in SN of MPTP-treated mice (Western blot); type: in vivo; conditions: all doses of rottlerin, MPTP 30 mg/kg 5 days
Description: Six to 8-week-old […] mice weighing 30 g were housed in standard conditions: constant temperature (22±1° C.), humidity (relative, 30%) and a 12-h light/dark cycle, and were allowed free access to food and water. The animals and protocol procedures were approved and supervised by the Committee on Animal Care (COAC) at the Iowa State University. Rottlerin was dissolved in 1% dimethyl sulfoxide (DMSO) and was administered intraperitoneally at various doses. An equal volume of DMSO was given to controls. Rottlerin and DMSO administrations were started 24 h before the injections of the MPTP and continued for 5 days in the MPTP model. In the chronic regimens of MPTP administration, MPTP in phosphate-buffered saline (PBS) was injected intraperitoneally at doses of 30 mg/kg, once a day. Mice were sacrificed 2 days after the MPTP injections, and the striata were dissected for catecholamine analysis. […]
brain lysates containing equal amounts of protein were loaded in each lane and separated on a 10-12% SDS-PAGE gel as described previously (Kaul, Kanthasamy et al. 2003). […] Secondary antibody-bound proteins were detected using Amersham's ECL chemiluminescence kit. […] Western blot images were captured with a Kodak […] imaging system and data were analyzed using 1D Kodak imaging analysis software.

CC(=O)c1c(O)c(C)c(O)c(Cc2c(O)c3c(c(C(=O)/C=C/c4ccccc4)c2O)OC(C)(C)C=C3)c1O [rottlerin]
silica-induced apoptosis as measured by DNA fragmentation [1]: reduced | exacerbation of autoimmunity by silica exposure (NZM mice): significantly decreased | TH-ser40 phosphorylation, densitometry of 60 kDa band, increase versus vehicle [2]: 3 fold | THser31 phosphorylation level [2]: unaltered | level of total TH [2]: unaltered | increase in TH-ser40 stained cells compared to DMSO-treated cells ([2]; immunofluorescence cell count): 333% | horizontal movement, percent of vehicle-treated control [3]: 76.93% | vertical movement, percent of vehicle-treated control [3]: 79% | cell number (3T3 cells): restored | proteolysis of PKC-delta, activated caspase-3 (3T3 cells): reduced or eliminated | inhibition (PKA): weak inhibitor | TH protein level in SN [4]: attenuate loss of TH protein
